From patent US8791144B2, “Substituted N-phenyl-1-(4-Pyridinyl)-1H-pyrazol-3-amines” (Janssen Pharmaceutica NV, priority 2009, dated 2014)

Legend:
hα7-wt nAChR [1] = target: T1, hα7-wt nAChR (Homo sapiens, UniProt P36544); experiment: Patch-clamp current recording (whole-cell voltage clamp), potentiation of choline current and PAM type; type: cell-based; parameters: key: Type 0 compounds minimally enhance the effect size of the current elicited by 1 mM choline.; Type 1 compounds enhance the effect size of the current elicited by 1 mM choline but minimally alter the kinetics of the receptor.; Type 2 compounds enhance the effect size of the current elicited by 1 mM choline while reducing the rate and/or the extent of desensitization.; Type 3 compounds enhance the effect size of the current elicited by 1 mM choline. When tested at higher concentrations up to 10 μM they completely inhibit desensitization, in particular a 1 mM choline application of 250 milliseconds.; Type 4 compounds allow for an initial desensitization of the receptor followed by a re-opening of the receptor during agonist application; conditions: hα7-wt nAChR-expressing GH4C1 cells, 1 mM choline
T1 sequence (P36544 23-502): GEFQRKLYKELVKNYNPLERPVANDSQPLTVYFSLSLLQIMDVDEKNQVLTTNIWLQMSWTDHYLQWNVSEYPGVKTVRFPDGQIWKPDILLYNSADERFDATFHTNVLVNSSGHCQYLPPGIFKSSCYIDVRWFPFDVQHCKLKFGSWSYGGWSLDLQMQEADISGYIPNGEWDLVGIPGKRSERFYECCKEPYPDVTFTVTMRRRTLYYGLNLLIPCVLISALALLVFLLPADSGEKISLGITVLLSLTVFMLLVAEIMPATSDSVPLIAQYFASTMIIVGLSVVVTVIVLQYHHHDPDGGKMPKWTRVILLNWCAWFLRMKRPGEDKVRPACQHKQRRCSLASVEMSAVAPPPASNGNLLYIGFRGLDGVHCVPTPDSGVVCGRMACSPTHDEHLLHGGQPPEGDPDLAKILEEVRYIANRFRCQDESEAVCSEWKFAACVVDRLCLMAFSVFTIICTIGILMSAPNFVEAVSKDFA
Procedure: The compounds of the present invention are classified as type 0-4, based on qualitative kinetic properties, as determined by whole-cell voltage-clamp recordings. This classification is based on the effect of an α7 PAM compound, as described hereinbefore, on the signal elicited by an agonist application. In particular, said agonist is choline at a concentration of 1 mM. In a preferred experimental setting, said α7 PAM compound and choline are simultaneously applied to the cell, as described hereinafter. Desensitization is defined as the closure of the receptor upon activation during the application of the agonist in whole-cell voltage-clamp electrophysiology measurements seen as the reduction of the […] current after initial activation by the agonist.
The definition of the PAM types 0-4 is described hereinafter: • Type 0 compounds minimally enhance the effect size of the current elicited by 1 mM choline. • Type 1 compounds enhance the effect size of the current elicited by 1 mM choline but minimally alter the kinetics of the receptor. In particular, the rate and the extent of desensitization, elicited by the agonist, is not affected. The compound-modulated response to 1 mM choline, therefore, is a close to linear scaling of the 1 mM choline response in absence of the α7 PAM compound. • Type 2 compounds enhance the effect size of the current elicited by 1 mM choline while reducing the rate and/or the extent of desensitization. • Type 3 compounds enhance the effect size of the current elicited by 1 mM choline. […] At low-potency concentrations of the α7 PAM compound, the agonist-induced activation, which is followed by desensitization, can still be separated from the compound-induced re-opening as an initial inward current-maximum. At higher potency concentrations of the α7 PAM compound, the re-opening occurs faster than the closure due to desensitization so that the initial current-maximum disappears.
A compound was considered to have interesting PAM-like activity when the potentiation of the peak current was at least 200% compared to the control choline response (=100%). Such compounds are classified as belonging to a particular PAM type in the Experimental Part. Compounds not meeting the condition are not classified as belonging to a particular PAM-type.
The compounds also have a potentiating effect on the response to choline when measured by whole-cell patch clamp electrophysiology in GH4C1 cells stably over-expressing the human wild-type α7 receptor.
Patch-clamp recording from mammalian cells has provided a powerful means of assessing the function of membrane-bound proteins thought to be subunits of ligand-gated ion channels. Activation of such proteins by endogenous or exogenous ligands cause opening of a pore associated with the receptor through which ions flow down their electrochemical gradient. In the case of the hα7-wt nAChR-expressing GH4C1 recombinant cell line the preferential permeability to calcium of this receptor means that calcium flows into the cell upon activation by ACh, choline and other nicotinic ligands giving rise to a calcium current. Since this receptor rapidly desensitizes in the presence of agonist it is important an application system is used which is capable of very rapid switching of solutions (<100 ms) to prevent partial or full desensitisation of receptor responses coincident with the time of agonist application. Consequently, a second convenient technique to assess the enhancement of nicotinic efficacy is patch-clamp recording from hα7-wt nAChR-expressing GH4C1 cells coupled with a rapid-application system.
• a) Assay Buffers • The external recording solution consisted of 152 mM NaCl, 5 mM KCl, 1 mM MgCl2, 1 mM Calcium, 10 mM HEPES; pH 7.3. […]

hα7-wt nAChR [2] = target: T1, hα7-wt nAChR; experiment: Ca2+ flux imaging (FDSS): potentiation of the choline response; type: cell-based; conditions: Ca2+ assay as described in D.1, potentiation of choline response, hα7-wt nAChR; for EC50: read-out: Potency (pEC50) (converted); for Emax: read-out: % Efficacy
Outline: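 Cells expressing human α7-wt nAChR loaded with fluo-4AM (2 μM final) up to 120 min; HBSS/10 mM HEPES/5 mM CaCl2/0.1% BSA buffer. Compound (0.01–30 μM) applied up to 10 min before 100 μM choline; peak fluorescence measured on FDSS relative to choline alone (100%). EC50 from sigmoidal curves.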

Compound | PAM type (hα7-wt nAChR [1]) | EC50 (hα7-wt nAChR [2]) [nM] | melting point [°C] | Emax (hα7-wt nAChR [2]) [%]
COc1cc(Nc2cc(CCC(=O)N(C)C)n(-c3ccnc(C)c3)n2)cc(C(F)(F)F)c1 [Compound 9, 3-[[3-methoxy-5-(trifluoromethyl)phenyl]amino]-N,N-dimethyl-1-(2-methyl-4-pyridinyl)-1H-pyrazole-5-propanamide] | 4 | 170 | 146.4 | 
Cc1cc(-n2nc(Nc3cccc(Cl)c3F)cc2CC(=O)NC2CC2)cc(C)n1 [Compound 78, 3-[(3-chloro-2-fluorophenyl)amino]-N-cyclopropyl-1-(2,6-dimethyl-4-pyridinyl)-1H-pyrazole-5-acetamide] | 2 | 407 | 222.9 | 
Cc1cc(-n2nc(Nc3cccc(OC(F)(F)F)c3)cc2CC(=O)NCC2CC2)cc(C)n1 [Compound 120, N-(cyclopropylmethyl)-1-(2,6-dimethyl-4-pyridinyl)-3-[[3-(trifluoromethoxy)phenyl]amino]-1H-pyrazole-5-acetamide] | 2 | 141 | 199.4 | 
CCNC(=O)Cc1cc(Nc2cccc(C(F)(F)F)c2)nn1-c1ccnc(C)c1 [Compound 44, N-ethyl-1-(2-methyl-4-pyridinyl)-3-[[3-(trifluoromethyl)phenyl]amino]-1H-pyrazole-5-acetamide] | 2 | 603 | 228.9 | 
Cc1cc(-n2nc(Nc3cccc(Cl)c3F)cc2CC(=O)NCC2CC2)ccn1 [Compound 79, 3-[(3-chloro-2-fluorophenyl)amino]-N-(cyclopropylmethyl)-1-(2-methyl-4-pyridinyl)-1H-pyrazole-5-acetamide] | 4 | 302 | 220.5 | 
CCNC(=O)Cc1cc(Nc2cc(Cl)cc(OC)c2)nn1-c1ccnc(C)c1 [Compound 74, 3-[(3-chloro-5-methoxyphenyl)amino]-N-ethyl-1-(2-methyl-4-pyridinyl)-1H-pyrazole-5-acetamide] | 4 | 776 | 224 | 
CC[C@H](O)Cc1cc(Nc2ccc(OC)c(C(F)(F)F)c2)nn1-c1ccnc(C)c1 [Compound 38, (alphaS)-alpha-ethyl-3-[[4-methoxy-3-(trifluoromethyl)phenyl]amino]-1-(2-methyl-4-pyridinyl)-1H-pyrazole-5-ethanol] | 2 | 1320 | 129 | 
Cc1cc(-n2nc(Nc3cccc(Cl)c3F)cc2CC(=O)NC2CC2)ccn1 [Compound 76, 3-[(3-chloro-2-fluorophenyl)amino]-N-cyclopropyl-1-(2-methyl-4-pyridinyl)-1H-pyrazole-5-acetamide] | 3 | 1100 | 192.6 | 
CNC(=O)Cc1cc(Nc2cc(OC)cc(C(F)(F)F)c2)nn1-c1ccnc(C)c1 [Compound 43, 3-[[3-methoxy-5-(trifluoromethyl)phenyl]amino]-N-methyl-1-(2-methyl-4-pyridinyl)-1H-pyrazole-5-acetamide] | 4 | 562 | 237.9 | 
CC[C@H](O)Cc1cc(Nc2cc(Cl)cc(OC)c2)nn1-c1ccnc(C)c1 [Compound 61, (alphaS)-3-[(3-chloro-5-methoxyphenyl)amino]-alpha-ethyl-1-(2-methyl-4-pyridinyl)-1H-pyrazole-5-ethanol] | 2 | 794 | 125.3 | 
CC[C@@H](O)Cc1cc(Nc2cccc(C(F)(F)F)c2)nn1-c1ccnc(C)c1 [Compound 35, (alphaR)-alpha-ethyl-1-(2-methyl-4-pyridinyl)-3-[[3-(trifluoromethyl)phenyl]amino]-1H-pyrazole-5-ethanol] | 2 | 692 | 170 | 
Cc1cc(-n2nc(Nc3ccc(F)c(F)c3)cc2CC(=O)NCC2CC2)ccn1 [Compound 29, N-(cyclopropylmethyl)-3-[(3,4-difluorophenyl)amino]-1-(2-methyl-4-pyridinyl)-1H-pyrazole-5-acetamide] | 2 | 692 | 230.3 | 
CNC(=O)Cc1cc(Nc2cc(Cl)cc(OC)c2)nn1-c1ccnc(C)c1 [Compound 72, 3-[(3-chloro-5-methoxyphenyl)amino]-N-methyl-1-(2-methyl-4-pyridinyl)-1H-pyrazole-5-acetamide] | 3 | 1820 | 215 | 
Cc1cc(-n2nc(Nc3cccc(OC(F)(F)F)c3)cc2CC(=O)NCC2CC2)ccn1 [Compound 119, N-(cyclopropylmethyl)-1-(2-methyl-4-pyridinyl)-3-[[3-(trifluoromethoxy)phenyl]amino]-1H-pyrazole-5-acetamide] | 2 | 324 | 191.7 | 
Cc1cc(-n2nc(Nc3cccc(OC(F)(F)F)c3)cc2CC(=O)NC(C)C)cc(C)n1 [Compound 116, 1-(2,6-dimethyl-4-pyridinyl)-N-(1-methylethyl)-3-[[3-(trifluoromethoxy)phenyl]amino]-1H-pyrazole-5-acetamide] | 2 | 245 | 229.1 | 
Cc1cc(-n2nc(Nc3ccc4c(c3)OC(F)(F)O4)cc2CCC(=O)N(C)C)ccn1 [Compound 99, 3-[(2,2-difluoro-1,3-benzodioxol-5-yl)amino]-N,N-dimethyl-1-(2-methyl-4-pyridinyl)-1H-pyrazole-5-propanamide] | 4 | 490 | 132 | 
COc1cc(Nc2cc(CC(=O)NC3CC3)n(-c3ccnc(C)c3)n2)cc(C(F)(F)F)c1 [Compound 46, N-cyclopropyl-3-[[3-methoxy-5-(trifluoromethyl)phenyl]amino]-1-(2-methyl-4-pyridinyl)-1H-pyrazole-5-acetamide] | 4 | 234 | 251.3 | 
CC[C@H](O)Cc1cc(Nc2cccc(OC(F)(F)F)c2)nn1-c1ccnc(C)c1 [Compound 106, (alphaS)-alpha-ethyl-1-(2-methyl-4-pyridinyl)-3-[[3-(trifluoromethoxy)phenyl]amino]-1H-pyrazole-5-ethanol] | 2 | 1820 | 147.3 | 
CC[C@H](O)Cc1cc(Nc2ccc(F)c(F)c2)nn1-c1ccnc(C)c1 [Compound 17, (alphaS)-3-[(3,4-difluorophenyl)amino]-alpha-ethyl-1-(2-methyl-4-pyridinyl)-1H-pyrazole-5-ethanol] | 2 | 1660 | 163.2 | 880
CNC(=O)Cc1cc(Nc2cccc(OC(F)(F)F)c2)nn1-c1ccnc(C)c1 [Compound 111, N-methyl-1-(2-methyl-4-pyridinyl)-3-[[3-(trifluoromethoxy)phenyl]amino]-1H-pyrazole-5-acetamide] | 2 | 2290 | 231.5 | 822
